Measured values reported in paper PMC9354243, “The Role of Tryptophan in π Interactions in Proteins: An Experimental Approach” (Journal of the American Chemical Society, 2022).
pKd: −log10 of the molar value.

Legend:
RibU = molecular target: RibU; design: method as in PMID 17289680; conditions: cited from earlier work
RibU W68Y mutant = tested on: RibU W68Y mutant; design: method as in PMID 17289680; conditions: W68Y mutant versus RibU; cited from earlier work
LmrR variants = test: SPR of the LmrR-Dau interaction at 10 and 25 °C, all LmrR variants; assay type: binding, Lactococcus lactis
Method: The thermodynamics of the LmrR–Dau interaction was recently reported to be mostly entropy driven.[21] To investigate this point in more detail the temperature dependence of the LmrR–Dau interaction was studied by surface plasmon resonance (SPR) experiments at 10 and 25 °C. […] The average ΔΔG from 6 LmrR variants is around 0.1 kJ/mol. These values imply that the temperature effects on the ΔGs are negligible, which would be in line with a low contribution of entropic factors to the Dau–LmrR interaction.
RibU. […]
MALDI-TOF. […] Spots were measured using a Voyager DE-PRO MALDI-TOF (time of flight) instrument (Applied Biosystems). The incorporation efficiency of Trp analog was calculated after measuring the peak areas of the peptide conta ining either Trp or Trp analog.
Binding assays - surface plasmon resonance (SPR). LmrR and mutants were immobilized on a CM5 sensor chip and binding of drugs was monitored using a BIACORE3000 system. The binding responses of Dau and RBF to LmrR were measured in triplicate at both 25 °C and 10 °C, in HBS-EP running buffer (10 mM HEPES, pH 7.4, 150 mM NaCl, 50 µM EDTA, and 0.005% surfactant P-20). The binding responses were corrected by subtracting the response measured in the control lane, to which a […]

Cc1cc2nc3c(=O)[nH]c(=O)nc-3n(C[C@H](O)[C@H](O)[C@H](O)CO)c2cc1C [RBF, riboflavin]
pKd (RibU): ~9.00 | Fold drop of RBF binding affinity (RibU W68Y mutant): ~100 fold

COc1cccc2c1C(=O)c1c(O)c3c(c(O)c1C2=O)C[C@@](O)(C(C)=O)C[C@@H]3O[C@H]1C[C@H](N)[C@H](O)[C@H](C)O1 [Dau, Daunomycin]
Fold increase of binding affinity at lower temperature (LmrR variants; 10 °C versus 25 °C, all LmrR variants): 1.4–3.5 fold | Average ΔΔG (ΔG10 °C – ΔG25 °C) (LmrR variants; average from 6 LmrR variants): around 0.1 kJ/mol
